Where a SMILES comes first, the peptide text is derived from it. Bridges are numbered along the chain shown (N, C = ends). [ ]: non-standard residue; d: D form. Tle = CC(C)(C)[C@H](N)C(=O)O; Nle = CCCC[C@H](N)C(=O)O; Orn = NCCC[C@H](N)C(=O)O; Dab = NCC[C@H](N)C(=O)O; Dap = NC[C@H](N)C(=O)O; Aib = CC(C)(N)C(=O)O
Experiments:
Format in all cases: cell-based
[1] = test system: human red blood cells (hRBC); test: Hemolysis of human red blood cells; conditions: red cells of human, 1 h, 100 μg/mL
Outline: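 Peptides at 100 μg/mL were incubated with PBS-washed fresh human erythrocytes (20% v/v, ~0.9×10^9 cells/mL final) for 1 h at 37° C. with shaking. Supernatant OD540 was read after 8-fold dilution; percent hemolysis was expressed relative to the 2.5% Triton X-100 full-lysis control, with PBS/0.001% acetic acid as 0%.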

[2] = test system: Escherichia coli ATCC 25922; conditions: ATCC 25922
Outline: (§1)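 Broth microdilution per CLSI, cation-adjusted MH-II medium, 0.002% (v/v) polysorbate 80 final. Approx. 10^6 CFU/mL inoculum, incubated 35° C for 18-20 h; MIC read as absence of visible growth.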

[3] = test system: Acinetobacter baumannii DSM 30008; conditions: DSM 30008
Outline: as §1

[4] = test system: Acinetobacter baumannii 872842; conditions: 872842
[5] = test system: Klebsiella pneumoniae 968733; conditions: 968733
[6] = test system: Klebsiella pneumoniae SSI #3010; conditions: SSI #3010
Outline: as §1

[7] = test system: Escherichia coli 926415; conditions: 926415
[8] = test system: Pseudomonas aeruginosa ATCC 27853; conditions: ATCC 27853
Outline: as §1

| Compound | Hemolysis at 100 μg/mL [1] [%] | Escherichia coli ATCC 25922 MIC [2] [µg/mL] | Acinetobacter baumannii DSM 30008 MIC [3] [µg/mL] | Acinetobacter baumannii 872842 MIC [4] [µg/mL] | Klebsiella pneumoniae 968733 MIC [5] [µg/mL] | Klebsiella pneumoniae SSI #3010 MIC [6] [µg/mL] | Escherichia coli 926415 MIC [7] [µg/mL] | Pseudomonas aeruginosa ATCC 27853 MIC [8] [µg/mL] |
| --- | --- | --- | --- | --- | --- | --- | --- | --- |
| CCCC[C@@H]1NC(=O)[C@@H]2CCCN2C(=O)[C@H]2CCCN2C(=O)[C@H](CO)NC(=O)[C@H](C)NC(=O)[C@H](C(C)(C)C)NC(=O)[C@@H](NC(=O)[C@H](Cc2c[nH]c3ccccc23)NC(=O)[C@@H](N)CCCNC(=N)N)CSSC[C@@H](C(=O)N[C@@H](CCN)C(=O)N[C@H](C(=O)N[C@@H](CCN)C(=O)N[C@H]2CCNC(=O)[C@H]([C@@H](C)O)NC(=O)[C@H](CCN)NC(=O)[C@H](CCN)NC(=O)[C@H](CC(C)C)NC(=O)[C@@H](Cc3ccccc3)NC(=O)[C@H](CCN)NC2=O)[C@@H](C)O)NC(=O)[C@H](Cc2ccc(O)cc2)NC(=O)[C@H](CO)NC1=O [Ex. 39] (H-RWC[Tle]AS[dP]P[Nle]SYC[Dab]T[Dab][Dab][Dab][dF]L[Dab][Dab]T; disulfide 3-12; lactam 16-C) | 4 | 0.25 | 0.25 | 0.5 | 2 | 0.125 | 0.25 | 0.25 |
| CCCC[C@@H]1NC(=O)[C@@H]2CCCN2C(=O)[C@H]2CCCN2C(=O)[C@H](CO)NC(=O)[C@H](C)NC(=O)[C@H](C(C)(C)C)NC(=O)[C@@H](NC(=O)[C@H](Cc2c[nH]c3ccccc23)NC(=O)[C@@H](N)CCC(=O)O)CSSC[C@@H](C(=O)N[C@@H](CCN)C(=O)N[C@H](C(=O)N[C@@H](CCN)C(=O)N[C@H]2CCNC(=O)[C@H]([C@@H](C)O)NC(=O)[C@H](CCN)NC(=O)[C@H](CCN)NC(=O)[C@H](CC(C)C)NC(=O)[C@@H](Cc3ccccc3)NC(=O)[C@H](CCN)NC2=O)[C@@H](C)O)NC(=O)[C@H](Cc2ccc(O)cc2)NC(=O)[C@H](CO)NC1=O [Ex. 40] (H-EWC[Tle]AS[dP]P[Nle]SYC[Dab]T[Dab][Dab][Dab][dF]L[Dab][Dab]T; disulfide 3-12; lactam 16-C) | 2 | 0.125 | 0.25 | 0.125 | 4 | 0.25 | 0.5 | 0.5 |
| CCCC[C@@H]1NC(=O)[C@@H]2CCCN2C(=O)[C@H]2CCCN2C(=O)[C@H](CO)NC(=O)[C@H](C)NC(=O)[C@H](C(C)(C)C)NC(=O)[C@@H](NC(=O)[C@H](Cc2c[nH]c3ccccc23)NC(=O)[C@H](C)NC(C)=O)CSSC[C@@H](C(=O)N[C@@H](CCN)C(=O)N[C@H](C(=O)N[C@@H](CCN)C(=O)N[C@H]2CCNC(=O)[C@H]([C@@H](C)O)NC(=O)[C@H](CCN)NC(=O)[C@H](CCN)NC(=O)[C@H](CC(C)C)NC(=O)[C@@H](Cc3ccccc3)NC(=O)[C@H](CCN)NC2=O)[C@@H](C)O)NC(=O)[C@H](Cc2ccc(O)cc2)NC(=O)[C@H](CO)NC1=O [Ex. 41] (Ac-AWC[Tle]AS[dP]P[Nle]SYC[Dab]T[Dab][Dab][Dab][dF]L[Dab][Dab]T; disulfide 3-12; lactam 16-C) | <1 | 2 | 0.5 | 0.5 | 1 | 0.25 | 0.5 | 0.5 |
| CCCC[C@@H]1NC(=O)[C@@H]2CCCN2C(=O)[C@H]2CCCN2C(=O)[C@H](CO)NC(=O)[C@H](C)NC(=O)[C@H](C(C)(C)C)NC(=O)[C@@H](NC(=O)[C@H](Cc2c[nH]c3ccccc23)NC(=O)[C@@H](N)CCN)CSSC[C@@H](C(=O)N[C@@H](CCN)C(=O)N[C@H](C(=O)N[C@@H](CCN)C(=O)N[C@H]2CCNC(=O)[C@H]([C@@H](C)O)NC(=O)[C@H](CCN)NC(=O)[C@H](CCN)NC(=O)[C@H](CC(C)C)NC(=O)[C@@H](Cc3ccccc3)NC(=O)[C@H](CCN)NC2=O)[C@@H](C)O)NC(=O)[C@H](Cc2ccc(O)cc2)NC(=O)[C@H](CO)NC1=O [Ex. 42] (H-[Dab]WC[Tle]AS[dP]P[Nle]SYC[Dab]T[Dab][Dab][Dab][dF]L[Dab][Dab]T; disulfide 3-12; lactam 16-C) | <1 | 0.125 | 0.25 | 0.25 | 2 | 0.25 | 0.25 | 0.25 |
| CCCC[C@@H]1NC(=O)[C@@H]2CCCN2C(=O)[C@H]2CCCN2C(=O)[C@H](CO)NC(=O)[C@H](C)NC(=O)[C@H](C(C)(C)C)NC(=O)[C@@H](NC(=O)[C@H](Cc2c[nH]c3ccccc23)NC(=O)[C@@H](N)[C@@H](C)O)CSSC[C@@H](C(=O)N[C@@H](CCN)C(=O)N[C@H](C(=O)N[C@@H](CCN)C(=O)N[C@H]2CCNC(=O)[C@H]([C@@H](C)O)NC(=O)[C@H](CCN)NC(=O)[C@H](CCN)NC(=O)[C@H](CC(C)C)NC(=O)[C@@H](Cc3ccccc3)NC(=O)[C@H](CCN)NC2=O)[C@@H](C)O)NC(=O)[C@H](Cc2ccc(O)cc2)NC(=O)[C@H](CO)NC1=O [Ex. 43] (H-TWC[Tle]AS[dP]P[Nle]SYC[Dab]T[Dab][Dab][Dab][dF]L[Dab][Dab]T; disulfide 3-12; lactam 16-C) | 1 | 0.125 | 0.5 | 1.5 | 0.5 | 0.25 | 1.5 | 0.5 |
| CCCC[C@@H]1NC(=O)[C@@H]2CCCN2C(=O)[C@H]2CCCN2C(=O)[C@H](CO)NC(=O)[C@H](C)NC(=O)[C@H](C(C)(C)C)NC(=O)[C@@H](NC(=O)[C@H](Cc2c[nH]c3ccccc23)NC(=O)C(C)(C)N)CSSC[C@@H](C(=O)N[C@@H](CCN)C(=O)N[C@H](C(=O)N[C@@H](CCN)C(=O)N[C@H]2CCNC(=O)[C@H]([C@@H](C)O)NC(=O)[C@H](CCN)NC(=O)[C@H](CCN)NC(=O)[C@H](CC(C)C)NC(=O)[C@@H](Cc3ccccc3)NC(=O)[C@H](CCN)NC2=O)[C@@H](C)O)NC(=O)[C@H](Cc2ccc(O)cc2)NC(=O)[C@H](CO)NC1=O [Ex. 44] (H-[Aib]WC[Tle]AS[dP]P[Nle]SYC[Dab]T[Dab][Dab][Dab][dF]L[Dab][Dab]T; disulfide 3-12; lactam 16-C) | <1 | 0.125 | 0.125 | 0.5 | 2 | 0.25 | 0.25 | 0.25 |
| CCCC[C@@H]1NC(=O)[C@@H]2CCCN2C(=O)[C@H]2CCCN2C(=O)[C@H](CO)NC(=O)[C@H](C)NC(=O)[C@H](C(C)(C)C)NC(=O)[C@@H](NC(=O)[C@@H](N)Cc2c[nH]c3ccccc23)CSSC[C@@H](C(=O)N[C@@H](CCCN)C(=O)N[C@@H](CCN)C(=O)N[C@H]2CCNC(=O)[C@H]([C@@H](C)O)NC(=O)[C@H](CCN)NC(=O)[C@H](CCN)NC(=O)[C@H](CC(C)C)NC(=O)[C@@H](Cc3ccccc3)NC(=O)[C@H](CCN)NC2=O)NC(=O)[C@H](Cc2ccc(O)cc2)NC(=O)[C@H](CO)NC1=O [Ex. 45] (H-WC[Tle]AS[dP]P[Nle]SYC[Orn][Dab][Dab][Dab][dF]L[Dab][Dab]T; disulfide 2-11; lactam 14-C) | 1 | 0.125 | 0.125 | 0.25 | 0.25 | 0.125 | 0.25 | 0.5 |
| CCCC[C@@H]1NC(=O)[C@@H]2CCCN2C(=O)[C@H]2CCCN2C(=O)[C@H](CO)NC(=O)[C@H](C)NC(=O)[C@H](C(C)(C)C)NC(=O)[C@@H](NC(=O)[C@H](Cc2c[nH]c3ccccc23)NC(C)=O)CSSC[C@@H](C(=O)N[C@@H](CCCN)C(=O)N[C@@H](CCN)C(=O)N[C@H]2CCNC(=O)[C@H]([C@@H](C)O)NC(=O)[C@H](CCN)NC(=O)[C@H](CCN)NC(=O)[C@H](CC(C)C)NC(=O)[C@@H](Cc3ccccc3)NC(=O)[C@H](CCN)NC2=O)NC(=O)[C@H](Cc2ccc(O)cc2)NC(=O)[C@H](CN)NC1=O [Ex. 46] (Ac-WC[Tle]AS[dP]P[Nle][Dap]YC[Orn][Dab][Dab][Dab][dF]L[Dab][Dab]T; disulfide 2-11; lactam 14-C) | <1 | 0.125 | 0.25 | 0.5 | 2 | 0.25 | 0.5 | 2 |

Source: patent US10829520B2, “Beta-hairpin peptidomimetics” (POLYPHOR AG, priority 2015, dated 2020)
